Source: ChEMBL document CHEMBL4033717, “Synthesis and anticancer activity of novel aza-artemisinin derivatives” (Bioorg Med Chem, 2017)

How the values were obtained:
CCRF-CEM = assay: Anti-proliferative activity against human CEM cells after 4 days by coulter counting method; assay type: functional, cell-based; settings: 96 h
HeLa = assay: Anti-proliferative activity against human HeLa cells after 3 days by coulter counting method; assay type: functional, cell-based; settings: 72 h
HMEC-1 = assay: Anti-proliferative activity against HMEC1 cells after 3 days by coulter counting method; assay type: cell-based; settings: Homo sapiens, HMEC-1, 72 h
[1] = Selectivity ratio of IC50 for HMEC1 cells to IC50 for human CEM cells

With `C[C@@H]1CC[C@H]2[C@@H](C)C(=O)N[C@@H]3O[C@@]4(C)CC[C@@H]1[C@]32OO4` the IC50 (CCRF-CEM) was 150 µM, the IC50 (HeLa) was 147 µM and the IC50 (HMEC-1) was over 250 µM.

In the case of `C[C@@H]1CC[C@H]2[C@@H](C)C(OCCn3nnc4c3CCc3ccccc3-4)O[C@@H]3O[C@@]4(C)CC[C@@H]1[C@]32OO4` (stereo partly drawn), the IC50 (CCRF-CEM) is reported as 157 µM, the IC50 (HeLa) is reported as over 250 µM and the IC50 (HMEC-1) is reported as over 250 µM.

With `C[C@H]1[C@H](OC(=O)C2CCc3c(nnn3CCc3c[nH]c4ccccc34)C2)O[C@@H]2O[C@@]3(C)CC[C@H]4[C@H](C)CC[C@@H]1[C@@]24OO3` (stereo partly drawn) the IC50 (CCRF-CEM) was 3.9 µM, the IC50 (HeLa) was 12 µM and the IC50 (HMEC-1) was 40 µM.

In the case of `COc1cc(-n2cc(CN3C(=O)[C@H](C)[C@@H]4CC[C@@H](C)[C@@H]5CC[C@@]6(C)OO[C@]54[C@H]3O6)nn2)cc(OC)c1OC`, the IC50 (CCRF-CEM) is reported as 17 µM, the IC50 (HeLa) is reported as 19 µM and the IC50 (HMEC-1) is reported as 155 µM. The “Ratio IC50” value [1] was 8 - 50.

`C[C@@H]1CC[C@H]2[C@@H](C)C(OCCn3nnc4c3C[C@@H]3CC[C@@H]5[C@H](CC[C@]6(C)[C@@H](O)CC[C@@H]56)[C@@]3(C)C4)O[C@@H]3O[C@@]4(C)CC[C@@H]1[C@]32OO4` (stereo partly drawn) gave an IC50 (CCRF-CEM) of 8.9 µM, an IC50 (HeLa) of 16 µM and an IC50 (HMEC-1) of 28 µM.

In the case of `C[C@@H]1CC[C@H]2[C@@H](C)C(=O)N(Cc3cn(C4OC(COCc5ccccc5)[C@H](OCc5ccccc5)[C@@H]4OCc4ccccc4)nn3)[C@@H]3O[C@@]4(C)CC[C@@H]1[C@@]23OO4` (stereo partly drawn), the IC50 (CCRF-CEM) is reported as over 250 µM, the IC50 (HeLa) is reported as at least 250 µM and the IC50 (HMEC-1) is reported as over 250 µM.

For `C[C@@H]1CC[C@H]2[C@@H](C)C(OCCn3nncc3-c3ccc(Br)c(Br)c3)O[C@@H]3O[C@@]4(C)CC[C@@H]1[C@]32OO4` (stereo partly drawn), the IC50 (CCRF-CEM) was 10 µM, the IC50 (HeLa) was 11 µM and the IC50 (HMEC-1) was 26 µM.

`C[C@@H]1CC[C@H]2[C@@H](C)C(=O)N(Cc3cn(C4CC(OC(=O)c5ccc(Cl)cc5)C(COC(=O)c5ccc(Cl)cc5)O4)nn3)[C@@H]3O[C@@]4(C)CC[C@@H]1[C@@]23OO4` (stereo partly drawn) gave an IC50 (CCRF-CEM) of 2.6 µM, an IC50 (HeLa) of 6.1 µM and an IC50 (HMEC-1) of 24 µM.

`C[C@H]1[C@H](OC(=O)C2CCc3c(nnn3Cc3ccc4c(c3)OCO4)C2)O[C@@H]2O[C@@]3(C)CC[C@H]4[C@H](C)CC[C@@H]1[C@@]24OO3` (stereo partly drawn) gave an IC50 (CCRF-CEM) of 2.8 µM, an IC50 (HeLa) of 11 µM and an IC50 (HMEC-1) of 35 µM.

Compound `CC(C)c1cccc(-n2cc(CN3C(=O)[C@H](C)[C@@H]4CC[C@@H](C)[C@@H]5CC[C@@]6(C)OO[C@]54[C@H]3O6)nn2)c1` has an IC50 (CCRF-CEM) of 0.92 µM, an IC50 (HeLa) of 1.2 µM and an IC50 (HMEC-1) of 30 µM. The “Ratio IC50” value [1] was 30.

Work on `C[C@@H]1CC[C@H]2[C@@H](C)C(OCCn3nnc4c3CCN(Cc3ccccc3)C4)O[C@@H]3O[C@@]4(C)CC[C@@H]1[C@]32OO4` (stereo partly drawn) yielded an IC50 (CCRF-CEM) of 20 µM, an IC50 (HeLa) of 19 µM and an IC50 (HMEC-1) of 30 µM.

Compound `COc1cc2c(cc1OC)-c1nnn(CCOC3O[C@@H]4O[C@@]5(C)CC[C@H]6[C@H](C)CC[C@@H]([C@H]3C)[C@@]46OO5)c1CC2` (stereo partly drawn) has an IC50 (CCRF-CEM) of 30 µM, an IC50 (HeLa) of 36 µM and an IC50 (HMEC-1) of 150 µM.

For `C=C(C)[C@@H]1CC[C@]2(C(=O)O)CC[C@]3(C)[C@H](CC[C@@H]4[C@@]5(C)Cc6nnn(CCOC7O[C@@H]8O[C@@]9(C)CC[C@H]%10[C@H](C)CC[C@@H]([C@H]7C)[C@@]8%10OO9)c6C(C)(C)[C@@H]5CC[C@]43C)[C@@H]12` (stereo partly drawn), the IC50 (CCRF-CEM) was 5 µM, the IC50 (HeLa) was 24 µM and the IC50 (HMEC-1) was 121 µM.

For `C[C@@H]1CC[C@H]2[C@@H](C)C(=O)N(Cc3cn(-c4ccccc4)nn3)[C@@H]3O[C@@]4(C)CC[C@@H]1[C@@]23OO4`, the IC50 (CCRF-CEM) was 5.1 µM, the IC50 (HeLa) was 36 µM and the IC50 (HMEC-1) was over 250 µM. For the same compound, the “Ratio IC50” value [1] was 8 - 50.

Work on `C[C@@H]1CC[C@H]2[C@@H](C)C(OCCn3nnc4c3CCc3ccc([N+](=O)[O-])cc3-4)O[C@@H]3O[C@@]4(C)CC[C@@H]1[C@]32OO4` (stereo partly drawn) yielded an IC50 (CCRF-CEM) of 95 µM, an IC50 (HeLa) of 175 µM and an IC50 (HMEC-1) of 160 µM.

Work on `C[C@@H]1CC[C@H]2[C@@H](C)C(OCCn3nncc3-c3cccc4ccccc34)O[C@@H]3O[C@@]4(C)CC[C@@H]1[C@]32OO4` (stereo partly drawn) yielded an IC50 (CCRF-CEM) of 11 µM, an IC50 (HeLa) of 12 µM and an IC50 (HMEC-1) of 24 µM.

In the case of `COC(=O)Cn1cc(CN2C(=O)[C@H](C)[C@@H]3CC[C@@H](C)[C@@H]4CC[C@@]5(C)OO[C@]43[C@H]2O5)nn1`, the IC50 (CCRF-CEM) is reported as at least 250 µM, the IC50 (HeLa) is reported as over 250 µM and the IC50 (HMEC-1) is reported as over 250 µM.

In the case of `C#CCN1C(=O)[C@H](C)[C@@H]2CC[C@@H](C)[C@@H]3CC[C@@]4(C)OO[C@]32[C@H]1O4`, the IC50 (CCRF-CEM) is reported as 104 µM, the IC50 (HeLa) is reported as 98 µM and the IC50 (HMEC-1) is reported as 241 µM.

Work on `C[C@@H]1CC[C@H]2[C@@H](C)C(OCCn3nnc4c3-c3ccccc3CC4)O[C@@H]3O[C@@]4(C)CC[C@@H]1[C@]32OO4` (stereo partly drawn) yielded an IC50 (CCRF-CEM) of 21 µM, an IC50 (HeLa) of 20 µM and an IC50 (HMEC-1) of 35 µM.

For `C[C@@H]1CC[C@H]2[C@@H](C)C(=O)N(Cc3cn(-c4ccc(C#N)cc4)nn3)[C@@H]3O[C@@]4(C)CC[C@@H]1[C@@]23OO4`, the IC50 (CCRF-CEM) was 18 µM, the IC50 (HeLa) was 36 µM and the IC50 (HMEC-1) was 26 µM.

Compound `C[C@@H]1CC[C@H]2[C@@H](C)C(OCCn3nncc3-c3ccccc3)O[C@@H]3O[C@@]4(C)CC[C@@H]1[C@]32OO4` (stereo partly drawn) has an IC50 (CCRF-CEM) of 25 µM, an IC50 (HeLa) of 37 µM and an IC50 (HMEC-1) of 62 µM.

`COc1cc(Cn2nnc3c2CCC(C(=O)O[C@@H]2O[C@@H]4O[C@@]5(C)CC[C@H]6[C@H](C)CC[C@@H]([C@H]2C)[C@@]46OO5)C3)cc(OC)c1OC` (stereo partly drawn) showed an IC50 (CCRF-CEM) of 4.3 µM, an IC50 (HeLa) of 21 µM and an IC50 (HMEC-1) of 40 µM.

`COc1ccc2c(c1)-c1nnn(CCOC3O[C@@H]4O[C@@]5(C)CC[C@H]6[C@H](C)CC[C@@H]([C@H]3C)[C@@]46OO5)c1CC2` (stereo partly drawn) showed an IC50 (CCRF-CEM) of 128 µM, an IC50 (HeLa) of 143 µM and an IC50 (HMEC-1) of 105 µM.

In the case of `COc1cc(-c2cnnn2CCOC2O[C@@H]3O[C@@]4(C)CC[C@H]5[C@H](C)CC[C@@H]([C@H]2C)[C@@]35OO4)ccc1O` (stereo partly drawn), the IC50 (CCRF-CEM) is reported as 39 µM, the IC50 (HeLa) is reported as 23 µM and the IC50 (HMEC-1) is reported as 62 µM.

`Cc1ccc(Cn2nnc3c2CCC(C(=O)O[C@@H]2O[C@@H]4O[C@@]5(C)CC[C@H]6[C@H](C)CC[C@@H]([C@H]2C)[C@@]46OO5)C3)cc1` (stereo partly drawn) showed an IC50 (CCRF-CEM) of 2.7 µM, an IC50 (HeLa) of 11 µM and an IC50 (HMEC-1) of 34 µM.
